1 molecule from patent publication US6949682B2, “Cinnamaldehyde derivatives inhibiting growth of tumor cell and regulating cell cycle, preparations and pharmaceutical compositions thereof” (Korea Research Institute of Bioscience and Biotechnology, priority 2003, dated 2005) can be followed below.

Each structure is given as a SMILES string.

Data set [1] deals with HCT116 colon cancer cell. As to the kind of experiment: Cell cycle analysis (Experimental Example 1), HCT116. It is filed as cell-based, human. The following applies: HCT116, 1 μM, 48 hours, percentage of cells in G2/M. As to the method:
(§1) Colon cancer cell of human SW620(ATCC) or HCT116 (ATCC) was transferred to T25 flask(culture 7.5 ml) by RPMI1640 (Gibco/BR) medium or DMEM medium (Gibco/BR) containing 10% FBS (fetal bovine serum), respectively. Thereafter the cell was incubated for 12 hours at 37° C. in incubator. After the cell was incubated for 12 hours, 7.5 μl of DMSO was added to a culture used as control group, for the final concentration to be 0.1%. In order to use in experiment, samples of various concentrations were prepared by dissolving the cinnamaldehyde derivatives of the present invention in DMSO. 7.5 μl of the prepared samples was added to a culture used as experimental group. Cell of control or experimental group was incubated for 48 hours.
(§2) For cell cycle analysis, incubated cell was removed from medium. Thereafter the incubated cell was separated from the flask by trypsin. Thus the cell was centrifuged at 300 g for 5 min. The cell was washed with phosphate buffer solution (PBS) to remove the residue medium from the cell. 3 ml of ethanol (70%) was added to the cell. The cell was fixed by being positioned at −20° C. for 12 hours. The fixed cell was centrifuged at 300 g for 3 min and washed with the cold PBS for two times to remove residual ethanol. The cell solution prepared by adding 500 μl of PBS to the cell was well mixed to produce the homogeneous state. 100 μg/ml RNase A 50 μl was added to the cell solution, thereafter the resulting cell solution was positioned at 37° C. for 30 min. The chromosomal DNA was stained by further adding 1 mg/ml propidium iodide (soluble in PBS) thereto.
(§3) Distribution of cell cycle of 20,000 stained cells were measured by using Becton-Dickinson FACS caliber (San Jose, Calif., USA).

Data set [2] concerns SW620 colon cancer cell. Put plainly: Cell cycle distribution (Experimental Example 2), SW620. It is filed as cell-based, human. Conditions: SW620, 1 μM, 48 hours. As for the experimental part:
(§4) SW620 or HCT116 as colon cancer cell was inoculated in 100 mm plate to the amount of 2×10^6 cells. Then, cinnamaldehyde derivative of the present invention (compound 16 or compound 35) was added to the plate in the concentration of 1 μM. Thereafter, the colon cancer cell was incubated for 48 hours. Trypsin was added to the plate, to separate the colon cancer cell from the plate. And 5 ml of PBS (phosphate buffer solution) was added to the plate, to prepare the cell mixture. The cell mixture was centrifuged at 1,500 rpm for 5 min for two times, to remove trypsin from the mixture. The residue was washed with PBS for two times, thus the resulting supernatant was discarded. 1 ml of PBS and 3˜5 ml of cool ethanol(70%) was added to the resulting residue. The cell was fixed by being positioned at −20° C. for 12 hours. The fixed cell was centrifuged at 1,500 rpm for 5 min and washed with the cool PBS for two times to remove residual ethanol. RNase(10 μg/ml) was added to the fixed cell, to remove RNA. And DNA of the fixed cell was dyed with PI(propidium iodide, 50 μg/ml). After the fixed cell was positioned at 37° C. for 30 min, cell cycles of 20,000 cells were measured by using Becton-Dickinson FACS caliber (San Jose, Calif., USA).
(§5) For control group, the same procedure was accomplished except that DMSO was used in place of the cinnamaldehyde derivative.

Data set [3] deals with SW620 colon cancer cell. Put plainly: Growth inhibition of SW620 colon cancer cell (GI50). It counts as cell-based, human. Conditions: Homo sapiens, SW-620; concentration at which growth of SW620 colon cancer cell was inhibited to the 50%. As for the experimental part:
as §1
(§6) HCT116 GI50 (μM) and SW620 GI50 (μM) mean to be the concentrations at which growth of HCT116 and SW620 colon cancer cell was inhibited to the 50%, respectively.

Data set [4] concerns SW620 colon cancer cell. Put plainly: Cell cycle analysis (Experimental Example 1), SW620. Conditions: SW620, 1 μM, 48 hours, percentage of cells in G2/M. It is filed as cell-based, human. As to the method: as §1, §2, §3
In data set [5] the test system is HCT116 colon cancer cell. Put plainly: Cell cycle distribution (Experimental Example 2), HCT116. It is filed as cell-based, human. As to the method:
as §4, §5

The test system of data set [6] is HCT116 colon cancer cell. Put plainly: Growth inhibition of HCT116 colon cancer cell (GI50). It counts as cell-based, human. The following applies: Homo sapiens, HCT-116; concentration at which growth of HCT116 colon cancer cell was inhibited to the 50%. As to the method: as §1, §6

As for `CN1CCN(c2ccccc2/C=C(C=O)/C(C=O)=C/c2ccccc2N2CCN(C)CC2)CC1` [Compound 35, 2,3-bis-(2-(N-methylpiperazine)benzylidene)succinaldehyde], the melting point was in the range of 218 to 220 °C. For the same molecule, in the data set with HCT116 colon cancer cell [1], the “G2/M at 1 μM(%) HCT116” value was 52%. For the same molecule, in the data set on SW620 colon cancer cell [2], the “Amount of cell (%) G0-G1” value turned out to be 8.74%, the “Amount of cell (%) G2-M” value is reported as 78.53% and the “Amount of cell (%) S” value came to 12.73%. In the data set with SW620 colon cancer cell [3], the GI50 was found to be 0.72 µM. Besides, in the data set on SW620 colon cancer cell [4], the “G2/M at 1 μM(%) SW620” value amounted to 79%. For the same molecule, in the data set with HCT116 colon cancer cell [5] (HCT116, 1 μM, 48 hours), the “Amount of cell (%) G0-G1” value amounted to 15.52%, the “Amount of cell (%) G2-M” value was found to be 52.11% and the “Amount of cell (%) S” value is 32.37%. Further, in the data set with HCT116 colon cancer cell [5] (HCT116 and SW620, 1 μM, summary of table 3), the “Holding of cancer cell in stage G2/M (in words)” value was “held a cancer cell in the stage G2/M”. Further, in the data set with HCT116 colon cancer cell [6], halving of growth (GI50) required 5.23 µM.
